This note sets out measurements from PubChem BioAssay (NCI).

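Briefly, cells in 96-well plates were exposed to five compound concentrations for 48 h, and endpoints were estimated by linear interpolation. TGI is the concentration that stops growth completely.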

Among the test systems are PC-3 prostate; SK-MEL-5 melanoma; DU-145 prostate; HOP-62 NSCLC; HCC-2998 colon; OVCAR-3 ovarian; KM12 colon; HS 578T breast; SNB-75 CNS; SF-295 CNS; MALME-3M melanoma.
What all share (assay): NCI-60 cell line screen, 48 h

Regarding `O=c1[nH]c(NCc2cccnc2)nc2nc[nH]c12`, the TGI in the assay on PC-3 prostate, in the assay on SK-MEL-5 melanoma, in the assay on DU-145 prostate, in the assay on HOP-62 NSCLC, in the assay with HCC-2998 colon and in the assay with OVCAR-3 ovarian was more than 100 µM throughout. For the same compound, the TGI in the assay with KM12 colon, in the assay with HS 578T breast, in the assay on SNB-75 CNS, in the assay on SF-295 CNS and with MALME-3M melanoma was more than 100 µM in each case.

As for `COC(=O)C(CNC(=O)/C=C/c1ccc(OC)c(OC)c1)NC(=O)/C=C/c1ccc(OC)c(OC)c1` (stereo not given), the TGI in the assay with PC-3 prostate, with SK-MEL-5 melanoma, in the assay on DU-145 prostate, in the assay on HOP-62 NSCLC, with HCC-2998 colon and with OVCAR-3 ovarian was more than 100 µM in each case. In addition, the TGI in the assay on KM12 colon, with HS 578T breast, in the assay on SNB-75 CNS, in the assay on SF-295 CNS and in the assay on MALME-3M melanoma was more than 100 µM throughout.

Consider `COc1ccc(/C=C2\N=C(N3CCCC(CO)C3)NC2=O)cc1` (stereo not given), for which the TGI in the assay on PC-3 prostate, in the assay on SK-MEL-5 melanoma, in the assay with DU-145 prostate, with HOP-62 NSCLC, in the assay with HCC-2998 colon and with OVCAR-3 ovarian was more than 100 µM each time. The TGI in the assay with KM12 colon, with HS 578T breast, with SNB-75 CNS, in the assay with SF-295 CNS and in the assay on MALME-3M melanoma was more than 100 µM each time.

In the case of `O=C(Cc1ccc2ccccc2c1)NCc1ccc(C(=O)NCCc2ccccc2)cc1`, the TGI in the assay with PC-3 prostate, in the assay with SK-MEL-5 melanoma, in the assay on DU-145 prostate, in the assay with HOP-62 NSCLC, in the assay with HCC-2998 colon and in the assay with OVCAR-3 ovarian was more than 100 µM each time. Besides, the TGI in the assay with KM12 colon, in the assay on HS 578T breast, in the assay on SNB-75 CNS, with SF-295 CNS and in the assay with MALME-3M melanoma was more than 100 µM throughout.

Turning to `O=C(Nc1ccccc1)N(CCN(Cc1ccccc1)C(=O)Nc1ccccc1)CCN(Nc1ccccc1)C(=O)Nc1ccccc1`, the TGI with PC-3 prostate, with SK-MEL-5 melanoma, with DU-145 prostate, with HOP-62 NSCLC, in the assay with HCC-2998 colon and in the assay on OVCAR-3 ovarian was more than 100 µM in each case. The TGI in the assay on KM12 colon, in the assay on HS 578T breast, in the assay with SNB-75 CNS, with SF-295 CNS and with MALME-3M melanoma was more than 100 µM in each case.

For `O=c1onc2n1-c1ccc(Cl)cc1C(=S)N1CSCC21` (stereo not given), the TGI was more than 100 µM in the assay on PC-3 prostate; more than 100 µM with SK-MEL-5 melanoma; more than 100 µM in the assay on DU-145 prostate; more than 100 µM in the assay on HOP-62 NSCLC; 35.4 µM in the assay with HCC-2998 colon; more than 100 µM in the assay on OVCAR-3 ovarian. In addition, the TGI with KM12 colon is 59.6 µM; in the assay with HS 578T breast, 53.9 µM; in the assay with SNB-75 CNS, 91.9 µM; in the assay on SF-295 CNS, 41.9 µM; with MALME-3M melanoma, more than 100 µM.

In the case of `CCCCSC1=N/C(=C\c2ccccc2O)C(=O)N1`, the TGI in the assay on PC-3 prostate was 92.6 µM; with DU-145 prostate it was more than 100 µM; in the assay with HOP-62 NSCLC, more than 100 µM; in the assay on HCC-2998 colon, more than 100 µM; in the assay on OVCAR-3 ovarian it was more than 100 µM; in the assay with KM12 colon, more than 100 µM. The TGI with HS 578T breast, in the assay on SNB-75 CNS, in the assay with SF-295 CNS and in the assay on MALME-3M melanoma was more than 100 µM throughout.

With `Nc1nc(Cl)cc(NCC2(CCO)CCC2)n1`, the TGI with PC-3 prostate, in the assay with SK-MEL-5 melanoma, with DU-145 prostate, with HOP-62 NSCLC, with HCC-2998 colon and with OVCAR-3 ovarian was more than 100 µM in each case. Besides, the TGI with KM12 colon is more than 100 µM; in the assay with HS 578T breast it was more than 100 µM; in the assay with SNB-75 CNS, more than 10 µM; in the assay on SF-295 CNS, more than 10 µM; in the assay with MALME-3M melanoma, more than 100 µM.

Consider `CC1OC(OC2C(O)COC(OC3C(C)OC(OC4C(OC(=O)[C@]56CCC(C)(C)C[C@@H]5C5=CCC7[C@@]8(C)C[C@H](O)[C@H](OC9OC(CO)C(O)C(O)C9O)[C@@](C)(CO)[C@@H]8CC[C@@]7(C)[C@]5(C)CC6)OCC(O)C4O)C(O)C3O)C2O)C(O)C(O)C1O` (stereo not given in full), for which the TGI with PC-3 prostate was found to be 38.3 µM; with SK-MEL-5 melanoma, 39.8 µM; with DU-145 prostate, 37.5 µM; with HOP-62 NSCLC, 37.7 µM; in the assay on HCC-2998 colon, 38 µM; in the assay on OVCAR-3 ovarian, 40.6 µM. In addition, the TGI in the assay on KM12 colon is more than 100 µM; in the assay on HS 578T breast, 60.4 µM; with SNB-75 CNS, 39 µM; with SF-295 CNS it was 48 µM; in the assay with MALME-3M melanoma it was 64.3 µM.

As to `CC1C(C)(C)C23CC12C1(OCCO1)C3Br` (stereo not given), the TGI in the assay with PC-3 prostate, in the assay with SK-MEL-5 melanoma, with DU-145 prostate, in the assay with HOP-62 NSCLC, with HCC-2998 colon and in the assay with OVCAR-3 ovarian was more than 100 µM in each case. Besides, the TGI with KM12 colon, with HS 578T breast, with SNB-75 CNS, in the assay with SF-295 CNS and in the assay on MALME-3M melanoma was more than 100 µM in each case.

On to `Cc1cc(N(CCC#N)CCC#N)ccc1/C(N=Nc1ccc([N+](=O)[O-])cc1)=N\NC(=O)c1cc(Cl)ccc1O`, for which the TGI was more than 100 µM in the assay on PC-3 prostate; more than 100 µM with SK-MEL-5 melanoma; more than 100 µM with DU-145 prostate; more than 100 µM in the assay with HOP-62 NSCLC; 46.2 µM in the assay on HCC-2998 colon; 38.2 µM in the assay on OVCAR-3 ovarian. The TGI in the assay on KM12 colon was more than 100 µM; in the assay on HS 578T breast it was 91.7 µM; in the assay with SNB-75 CNS, more than 100 µM; with SF-295 CNS it was more than 100 µM; in the assay on MALME-3M melanoma, more than 100 µM.

As to `CC(=O)Nc1nc(C)c(S(=O)(=O)NC(=O)NC2NC(=O)NC2=O)s1` (stereo not given), the TGI in the assay on PC-3 prostate, in the assay on SK-MEL-5 melanoma, in the assay on DU-145 prostate, with HOP-62 NSCLC, in the assay on HCC-2998 colon and in the assay on OVCAR-3 ovarian was more than 100 µM in each case. The TGI in the assay with KM12 colon, in the assay on HS 578T breast, in the assay on SNB-75 CNS, with SF-295 CNS and in the assay on MALME-3M melanoma was more than 100 µM throughout.

With `CCOP(=O)(CC(=O)C1CC1)OCC`, the TGI in the assay with PC-3 prostate, with SK-MEL-5 melanoma, in the assay on DU-145 prostate, in the assay with HOP-62 NSCLC, in the assay on HCC-2998 colon and with KM12 colon was more than 100 µM in each case. Moreover, the TGI with HS 578T breast, in the assay with SNB-75 CNS, in the assay on SF-295 CNS and with MALME-3M melanoma was more than 100 µM throughout.

With `O=[N+]([O-])c1ncc(N(CCO)CCO)s1`, the TGI in the assay with PC-3 prostate, in the assay on DU-145 prostate, in the assay on HOP-62 NSCLC, with HCC-2998 colon, in the assay on OVCAR-3 ovarian and with KM12 colon was more than 100 µM in each case. Besides, the TGI in the assay with HS 578T breast was more than 100 µM; with SNB-75 CNS, more than 100 µM; in the assay with SF-295 CNS it was more than 100 µM; in the assay with MALME-3M melanoma, 36.3 µM.

In the case of `COC(=O)CCc1ccc(CCC(=O)OC)cc1`, the TGI in the assay with PC-3 prostate, in the assay with SK-MEL-5 melanoma, in the assay with DU-145 prostate, with HOP-62 NSCLC, in the assay on HCC-2998 colon and in the assay on OVCAR-3 ovarian was more than 100 µM throughout. Besides, the TGI in the assay with HS 578T breast, with SNB-75 CNS, in the assay with SF-295 CNS and in the assay with MALME-3M melanoma was more than 100 µM each time.

For `CCOC(=O)c1c(O)cn2c1[nH]c1cccc3cccc2c31`, the TGI with PC-3 prostate, in the assay on SK-MEL-5 melanoma, with DU-145 prostate, in the assay on HOP-62 NSCLC, in the assay with HCC-2998 colon and with KM12 colon was more than 100 µM each time. The TGI in the assay with HS 578T breast, with SNB-75 CNS, in the assay with SF-295 CNS and in the assay on MALME-3M melanoma was more than 100 µM each time.

As to `O=C(O)/C=C/c1ccc(Oc2ccccc2C(=O)O)o1`, the TGI in the assay on PC-3 prostate, in the assay on SK-MEL-5 melanoma, in the assay on DU-145 prostate, in the assay on HOP-62 NSCLC, with HCC-2998 colon and in the assay on KM12 colon was more than 10 µM each time. In addition, the TGI in the assay with HS 578T breast, in the assay with SNB-75 CNS, with SF-295 CNS and in the assay with MALME-3M melanoma was more than 10 µM each time.

For `COC(=O)c1ccc(NCc2cc(OC)ccc2OC)cc1`, the TGI in the assay on PC-3 prostate, in the assay with SK-MEL-5 melanoma, in the assay on DU-145 prostate, with HCC-2998 colon, in the assay on OVCAR-3 ovarian and in the assay with KM12 colon was more than 100 µM throughout. The TGI in the assay with HS 578T breast, in the assay with SNB-75 CNS and with MALME-3M melanoma was more than 100 µM throughout.

On to `COC(=O)c1cc2c(c(C(=O)OC)c1)CCC2`, for which the TGI in the assay with PC-3 prostate, in the assay with SK-MEL-5 melanoma, in the assay with DU-145 prostate, in the assay with HOP-62 NSCLC, in the assay on HCC-2998 colon and in the assay with OVCAR-3 ovarian was more than 100 µM each time. The TGI with HS 578T breast, in the assay on SNB-75 CNS, in the assay on SF-295 CNS and in the assay with MALME-3M melanoma was more than 100 µM throughout.
